Test [1] deals with PSN1. The test can be described thus: Induction of reactive oxygen species production in human PSN1 cells assessed as increase in cellular hydrogen peroxide formation at 5 uM by CM-H2DCFDA staining based analysis. The test is classed as functional, cell-based.
The target in test [2] is T1, [Pyruvate dehydrogenase (acetyl-transferring)] kinase isozyme 1, mitochondrial (Homo sapiens, UniProt Q15118). Briefly: Inhibition of PDK1 (unknown origin) at 1.5 uM incubated for 30 mins followed by substrate addition measured after 60 mins in presence of ATP by ADP-Glo luminescent assay relative to control. Particulars: time 90.0 min, values are per cent of control. On the technique in general: ADP-Glo turns the ADP formed in a reaction into a luminescent signal.
T1 sequence (Q15118 whole entry): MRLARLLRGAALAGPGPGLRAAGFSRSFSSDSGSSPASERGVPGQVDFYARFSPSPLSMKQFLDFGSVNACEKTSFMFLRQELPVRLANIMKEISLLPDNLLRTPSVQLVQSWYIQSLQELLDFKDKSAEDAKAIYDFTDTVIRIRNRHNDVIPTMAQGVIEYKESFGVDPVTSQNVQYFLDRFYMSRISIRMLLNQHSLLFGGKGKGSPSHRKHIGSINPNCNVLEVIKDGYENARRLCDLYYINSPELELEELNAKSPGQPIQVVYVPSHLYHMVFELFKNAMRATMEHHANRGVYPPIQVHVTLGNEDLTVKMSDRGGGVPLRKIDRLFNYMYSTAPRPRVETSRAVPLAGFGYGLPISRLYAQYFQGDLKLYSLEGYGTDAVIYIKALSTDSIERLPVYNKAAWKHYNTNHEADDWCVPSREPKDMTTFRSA

Test [3] concerns the target [Pyruvate dehydrogenase (acetyl-transferring)] kinase isozyme 2, mitochondrial (Homo sapiens) (UniProt Q15119). The test can be described thus: Inhibition of PDK2 (unknown origin) at 1.5 uM incubated for 30 mins followed by substrate addition measured after 60 mins in presence of ATP by ADP-Glo luminescent assay relative to control. Particulars: time 90.0 min.
Test [4] concerns BXPC-3. Briefly: Antiproliferative activity against human BXPC-3 cells expressing wild type KRAS cultured as 2D spheroids assessed as inhibition of cell growth measured after 72 hrs by MTT assay. The test is classed as functional, cell-based. The settings on record: BXPC-3, 72 h. Background: Tetrazolium assays rely on reduction of a dye to a coloured formazan, in cell work by metabolically active cells.

The subject of test [5] is PSN1. The test can be described thus: Antiproliferative activity against human PSN1 cells expressing KRAS mutant cultured as 2D spheroids assessed as inhibition of cell growth measured after 72 hrs by MTT assay. Type of test: functional, cell-based. Particulars: PSN1, 72 h.
In test [6] the test system is BXPC-3. The test can be described thus: Antiproliferative activity against human BXPC-3 cells expressing wild type KRAS cultured as 3D spheroids assessed as inhibition of cell growth measured after 72 hrs by MTT assay. Particulars: BXPC-3, 72 h. Type of test: functional, cell-based.
Test [7] concerns PSN1. Briefly: Antiproliferative activity against human PSN1 cells expressing KRAS mutant cultured as 3D spheroids assessed as inhibition of cell growth measured after 72 hrs by MTT assay. Type of test: functional, cell-based. Particulars: PSN1, 72 h.
Test [8] addresses [Pyruvate dehydrogenase (acetyl-transferring)] kinase isozyme 3, mitochondrial (Homo sapiens) (UniProt Q15120). Briefly: Inhibition of PDK3 (unknown origin) at 1.5 uM incubated for 30 mins followed by substrate addition measured after 60 mins in presence of ATP by ADP-Glo luminescent assay relative to control. The settings on record: time 90.0 min.
The target of test [9] is Heat shock protein HSP90 (Homo sapiens, UniProt P07900+P08238). Briefly: Inhibition of human recombinant HSP90 at 1.5 uM incubated for 30 mins by fluorescence polarization based analysis relative to control. Type of test: protein assay. (In fluorescence polarisation assays a small probe gives low polarisation when free and higher when bound to something large.)
Test [10] addresses T1, [Pyruvate dehydrogenase (acetyl-transferring)] kinase isozyme 1, mitochondrial. The test can be described thus: Inhibition of PDK1 (unknown origin) incubated for 30 mins followed by substrate addition measured after 60 mins in presence of ATP by ADP-Glo luminescent assay.
Test [11] deals with PSN1. Briefly: Downregulation of PDHA1 phosphorylation in human PSN1 cells at IC50 incubated for 24 hrs by ELISA assay. Type of test: functional, cell-based.
The subject of test [12] is PSN1. Briefly: Inhibition of PDK in human PSN1 cells expressing KRAS mutant assessed as increase in cellular oxygen consumption at IC50 incubated for 60 mins by fluorescence based analysis. The test is classed as cell-based.
For test [13], the system named is PSN1. Briefly: Inhibition of PDK in human PSN1 cells expressing KRAS mutant assessed as decrease in lactate production levels at IC50 incubated for 60 mins by colorimetric analysis. Type of test: cell-based.

Active and inactive are the calls of the source. No cut-off for these calls is given here.

Sequence of [Pyruvate dehydrogenase (acetyl-transferring)] kinase isozyme 3, mitochondrial (Homo sapiens) (Q15120 whole entry, looked up): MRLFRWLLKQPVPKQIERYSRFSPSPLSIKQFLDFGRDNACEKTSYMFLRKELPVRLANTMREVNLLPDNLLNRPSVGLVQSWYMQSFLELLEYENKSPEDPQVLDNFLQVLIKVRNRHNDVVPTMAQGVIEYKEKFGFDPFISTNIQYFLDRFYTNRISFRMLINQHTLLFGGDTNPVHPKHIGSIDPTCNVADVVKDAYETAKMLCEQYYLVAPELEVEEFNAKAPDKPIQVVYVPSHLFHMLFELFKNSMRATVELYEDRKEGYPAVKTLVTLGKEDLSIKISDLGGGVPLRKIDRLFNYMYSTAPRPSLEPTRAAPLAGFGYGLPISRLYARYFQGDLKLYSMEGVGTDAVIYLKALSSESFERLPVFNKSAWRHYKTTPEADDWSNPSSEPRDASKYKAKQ

For `CCCCCC[C@H]1C(=O)O[C@H](C)[C@H](NC(=O)c2cccc(NC=O)c2O)C(=O)O[C@@H](C)[C@@H]1OC(=O)CC(C)C`, the outcome in test [1] was Active.

In the case of `Nc1nnc(-c2c[nH]c3ncccc23)c(-c2c[nH]c3ccc(Br)cc23)n1`, the residual activity – broadly, the activity still measured, relative to the control – in test [2] came out at 40%. For the same compound, the inhibition (commonly the change of the read-out against control, counted positive when it falls) in test [3] was found to be 100%. The half-maximal inhibitory concentration (IC50) (as a rule, the midpoint of a concentration-inhibition curve) in test [4] turned out to be 1.8 µM; in [5] it was 1.6 µM; in test [6] it was 16.4 µM; in test [7], 15.1 µM.

As to `Cn1cc(-c2nc(N)nnc2-c2c[nH]c3ccccc23)c2cc(Br)cnc21`, in test [2], the residual activity is 40%. Moreover, in test [3], the inhibition came out at 100%. The IC50 in [4] is 2.7 µM; in [5], 4.7 µM; in test [6] it was 33.6 µM; in test [7], 31.2 µM.

Take `COc1ccc2[nH]cc(-c3nc(N)nnc3-c3c[nH]c4ncccc34)c2c1`: the residual activity in test [2] was 40%. Moreover, the inhibition in test [3] and in test [8] was 100% each time. In addition, the IC50 worked out at 2.1 µM in [4], 2.2 µM in [5], 34.2 µM in test [6] and 35.2 µM in test [7].

With `Nc1nnc(-c2c[nH]c3ncccc23)c(-c2c[nH]c3ccc(F)cc23)n1`, the residual activity in [2] stood at 40%. In addition, in [3], the inhibition came to 100%. In addition, the IC50 amounted to 2.6 µM in [4], 3.2 µM in [5], 19.7 µM in [6] and 20.1 µM in [7].

With `Nc1nnc(-c2c[nH]c3ccc(Br)cc23)c(-c2c[nH]c3ncccc23)n1`, in [2], the residual activity amounted to 40%. For the same compound, the inhibition in test [3] amounted to 100%.

With `Cn1cc(-c2nc(N)nnc2-c2c[nH]c3ccc(Br)cc23)c2cccnc21`, the residual activity in [2] amounted to 40%. Moreover, the inhibition in [3] and in test [8] was 100% throughout. For the same compound, the IC50 in test [4] is 2.5 µM; in test [5], 3.6 µM; in [6], 19.9 µM; in test [7], 24.1 µM.

Regarding `Cn1cc(-c2nnc(N)nc2-c2c[nH]c3ccc(Br)cc23)c2cccnc21`, the residual activity in [2] came out at 40%. Besides, the inhibition in test [3] and in test [8] was 100% in each case. For the same compound, the IC50 in [4] was determined as 2.3 µM; in test [5], 2.9 µM; in [6], 25.9 µM; in test [7], 20.9 µM.

With `Nc1nnc(-c2c[nH]c3ccc(Br)cc23)c(-c2c[nH]c3ncc(Br)cc23)n1`, the residual activity in test [2] was 40%. For the same compound, the inhibition in test [3] stood at 100%. The IC50 amounted to 1.4 µM in test [4], 1.5 µM in test [5], 54.5 µM in test [6] and 21.6 µM in [7].

On to `COc1ccc2[nH]cc(-c3nc(N)nnc3-c3cn(C)c4ncc(Br)cc34)c2c1`, for which the residual activity in [2] came to 40%. In addition, the inhibition in test [3] was determined as 100%; in test [8] it was 100%; in test [9] it was 0%. The IC50 in [4] amounted to 0.3 µM; in [5] it was 2.6 µM; in test [6], 6.3 µM; in [7] it was 8.4 µM.

As for `Nc1nnc(-c2c[nH]c3ccc(F)cc23)c(-c2c[nH]c3ncccc23)n1`, in test [2], the residual activity is 40%. The inhibition in [3] was 100%. The half-inhibitory concentration (IC50) in [4] is 1.2 µM; in test [5] it was 1.6 µM; in [6] it was 22.6 µM; in test [7] it was 22.3 µM.

Turning to `COc1ccc2[nH]cc(-c3nnc(N)nc3-c3c[nH]c4ncc(Br)cc34)c2c1`, in test [2], the residual activity worked out at 40%. The inhibition in test [3] worked out at 100%. The IC50 worked out at 3.2 µM in [4], 3.4 µM in test [5], 27.5 µM in test [6] and 22.1 µM in [7].

Regarding `COc1ccc2[nH]cc(-c3nnc(N)nc3-c3c[nH]c4ncccc34)c2c1`, the residual activity in test [2] came to 40%. The inhibition in test [3] came out at 100%.

As to `Cn1cc(-c2nc(N)nnc2-c2c[nH]c3ccccc23)c2cccnc21`, in [2], the residual activity came to 40%. Also, in [3], the inhibition was found to be 100%. In addition, the IC50 in test [4] is 1.9 µM; in test [5], 2.1 µM; in [6], 15.5 µM; in test [7], 13.2 µM.

As to `Cn1cc(-c2nnc(N)nc2-c2c[nH]c3ccccc23)c2cccnc21`, the residual activity in test [2] is 40%. The inhibition in [3] stood at 100%. Moreover, the IC50 was 1.8 µM in test [4], 2.2 µM in [5], 16.1 µM in test [6] and 20.1 µM in test [7].

`O=C(c1ccccc1)C(Cl)Cl`: the IC50 is greater than 100 µM in [10]; 10.2 µM in [4]; 36.5 µM in test [5]; 78.2 µM in test [6]; 87.4 µM in [7]. The outcome in test [11] was Active. For the same compound, the inhibition entry in test [12] and in test [13] was “Active” in each case.

On to `Cn1cc(-c2nnc(N)nc2-c2c[nH]c3ccc(F)cc23)c2cccnc21`, for which, in test [2], the residual activity was determined as 40%. Besides, the inhibition in [3] and in test [8] was 100% each time. Further, the IC50 in test [4] came to 1.6 µM; in test [5], 1.6 µM; in [6] it was 14.6 µM; in [7], 16 µM.

For `O=C(O)C(Cl)Cl` [DICHLOROACETIC ACID], the IC50 in [4], in [5], in [6] and in test [7] was greater than 1000 µM in each case.

Turning to `Nc1nnc(-c2c[nH]c3ncc(Br)cc23)c(-c2c[nH]c3ccc(Br)cc23)n1`, in test [2], the residual activity was 40%. Moreover, the inhibition in test [3] and in test [8] was 100% throughout. In addition, the IC50 stood at 2.1 µM in [4], 4.6 µM in test [5], 28.7 µM in test [6] and 23.5 µM in test [7].

With `Nc1nnc(-c2c[nH]c3ccc(F)cc23)c(-c2c[nH]c3ncc(Br)cc23)n1`, in test [2], the residual activity was found to be 40%. The inhibition in test [3] and in [8] was 100% in each case. The IC50 was 1.7 µM in test [4], 1.3 µM in test [5], 14.9 µM in [6] and 19.2 µM in test [7].

As for `COc1ccc2[nH]cc(-c3nc(N)nnc3-c3cn(C)c4ncccc34)c2c1`, the residual activity in test [2] was determined as 40%. The inhibition in test [3] was 100%. For the same compound, the IC50 in test [4] came to 1.4 µM; in test [5], 2.3 µM; in [6], 13.6 µM; in test [7], 13.6 µM.

Turning to `Nc1nnc(-c2c[nH]c3ccccc23)c(-c2c[nH]c3ncccc23)n1`, the residual activity in test [2] is 40%. The inhibition in [3] and in test [8] was 100% each time. For the same compound, the IC50 in test [4] came out at 1.5 µM; in [5], 1.8 µM; in [6], 23.2 µM; in test [7] it was 14.3 µM.

Turning to `Cn1cc(-c2nc(N)nnc2-c2c[nH]c3ccc(F)cc23)c2cccnc21`, in test [2], the residual activity amounted to 40%. Moreover, the inhibition in test [3] and in test [8] was 100% in each case. In addition, the IC50 is 2.2 µM in [4], 3.2 µM in test [5], 22.2 µM in test [6] and 20.3 µM in [7].

On to `COc1ccc2[nH]cc(-c3nc(N)nnc3-c3c[nH]c4ncc(Br)cc34)c2c1`, for which the residual activity in test [2] amounted to 40%. For the same compound, the inhibition in test [3] and in test [8] was 100% each time. Besides, the IC50 stood at 4.4 µM in [4], 4.7 µM in test [5], 31.2 µM in [6] and 17.2 µM in test [7].

`Cn1cc(-c2nnc(N)nc2-c2c[nH]c3ccccc23)c2cc(Br)cnc21`: the residual activity in test [2] was determined as 40%. The inhibition in [3] was 100%. Also, the concentration for half-maximal inhibition (IC50) in test [4] was 3.2 µM; in test [5], 4.6 µM; in test [6], 34.2 µM; in test [7] it was 31.8 µM.

In the case of `Nc1nnc(-c2c[nH]c3ncc(Br)cc23)c(-c2c[nH]c3ccc(F)cc23)n1`, in test [2], the residual activity stood at 40%. In addition, the inhibition in [3] and in [8] was 100% throughout. For the same compound, the IC50 in test [4] came out at 2.5 µM; in test [5], 2.9 µM; in test [6] it was 19.7 µM; in test [7], 28.3 µM.

For `COc1ccc2[nH]cc(-c3nnc(N)nc3-c3cn(C)c4ncccc34)c2c1`, in test [2], the residual activity came out at 40%. The inhibition in test [3] came out at 100%. Also, the IC50 in [4] came out at 1.5 µM; in test [5], 2.1 µM; in test [6] it was 10.7 µM; in test [7], 12.2 µM.

For the origin of these results see ChEMBL document CHEMBL5346893, “1,2,4-Amino-triazine derivatives as pyruvate dehydrogenase kinase inhibitors: Synthesis and pharmacological evaluation” (Eur J Med Chem, 2023).
